ChEMBL document CHEMBL1909585 (Bioorg Med Chem Lett, 2011)

Assays:
Tyrosinase = biological target: T1, Tyrosinase (Agaricus bisporus, UniProt O42713)
T1 sequence (O42713 whole entry): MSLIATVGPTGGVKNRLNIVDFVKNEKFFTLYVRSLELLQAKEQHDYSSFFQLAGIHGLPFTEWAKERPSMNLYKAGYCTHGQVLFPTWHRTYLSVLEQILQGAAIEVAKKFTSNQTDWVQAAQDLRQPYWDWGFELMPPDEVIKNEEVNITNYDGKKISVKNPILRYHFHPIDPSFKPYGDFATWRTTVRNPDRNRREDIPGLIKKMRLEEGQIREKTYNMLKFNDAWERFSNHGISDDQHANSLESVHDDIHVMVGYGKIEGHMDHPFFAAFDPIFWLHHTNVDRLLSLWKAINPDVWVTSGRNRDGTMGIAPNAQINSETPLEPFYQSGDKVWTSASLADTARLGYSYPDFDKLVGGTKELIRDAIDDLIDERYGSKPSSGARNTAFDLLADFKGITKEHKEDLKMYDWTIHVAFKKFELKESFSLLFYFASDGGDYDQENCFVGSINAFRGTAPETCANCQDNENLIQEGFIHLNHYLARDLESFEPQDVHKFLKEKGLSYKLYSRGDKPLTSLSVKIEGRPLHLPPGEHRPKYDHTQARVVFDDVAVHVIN
Description: Inhibition of mushroom tyrosinase activity using L-tyrosine as substrate by spectrometric analysis

B16 [1] = test: cells; details: Mus musculus, B16, 72 h, read-out: INH
Description: Inhibition of alpha-MSH -stimulated melanogenesis in mouse B16 cells assessed as melanin release at 10 uM after 72 hrs by spectrometric analysis

B16 [2] = test: cells; details: Mus musculus, B16, 72 h
Description: Inhibition of alpha-MSH -stimulated melanogenesis in mouse B16 cells assessed as melanin release after 72 hrs by spectrometric analysis

Row | SMILES | IC50 (Tyrosinase) [µM] | inhibition at 10 µM (B16 [1]) [%] | IC50 (B16 [2]) [µM]
1 | S=C1NCc2ccccc2N1 | > 100 |  | 
2 | S=C(NCc1ccccc1)Nc1ccccc1 | > 100 | 91 | 4.7
3 | Cc1ccccc1NC(N)=S | 0.84 |  | 
4 | Cc1cccc(NC(N)=S)c1 | 0.6 |  | 
5 | CCc1ccccc1NC(N)=S | 27.1 |  | 
6 | Cc1ccc2c(c1)CN(CCc1ccccc1)C(=S)N2 | > 100 |  | 
7 | CNC(=S)Nc1ccccc1 | > 100 | 30 | 35
8 | NC(=S)NCc1ccccc1 | 25.4 |  | 
9 | COc1ccc(NC(S)=Nc2ccccc2)cc1 | > 100 | 59 | 8.2
10 | CCc1ccc(NC(N)=S)cc1 | 0.8 |  | 
11 | NC(=S)NCCCc1ccccc1 | 64.8 |  | 
12 | S=C(NCCCc1ccccc1)Nc1ccccc1 | > 100 | > 100 | 1.8
13 | CC(C)(C)c1ccccc1NC(N)=S | > 100 |  | 
14 | Cc1ccc(NC(=S)Nc2ccccc2)cc1 | > 100 | 79 | 6.3
15 | S=C(Nc1ccccc1)Nc1ccc(Cl)cc1 | > 100 | > 100 | 3.4
16 | S=C(Nc1ccccc1)NC1CCCCC1 | > 100 | > 100 | 2.4
17 | Cc1ccc(NC(N)=S)cc1 | 1.4 |  | 
18 | CC(C)(C)c1ccc(NC(N)=S)cc1 | 1.7 |  | 
19 | S=C(NCCc1ccccc1)Nc1ccccc1 | > 100 | > 100 | 2.2
20 | Oc1ccc(N/C(S)=N/c2ccccc2)cc1 | > 100 | 24 | 20.7
21 | CC(C)N(C(=S)Nc1ccccc1)C(C)C | > 100 | 30 | 19.6
22 | NC(=S)NCCc1ccccc1 | > 100 |  | 
